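Results reflect a 48-hour exposure of cells in 96-well plates to compound at five concentrations. Definition used: TGI = concentration required for complete inhibition of growth.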 Where a SMILES comes first, the peptide text is derived from it.
Tests used:
Test in all cases: DTP human tumour cell line panel, 48 h
RXF 393 renal = test system: RXF 393 renal
NCI-H460 lung = test system: NCI-H460 lung
SK-MEL-2 melanoma = test system: SK-MEL-2 melanoma
SK-MEL-5 melanoma = test system: SK-MEL-5 melanoma
EKVX NSCLC = test system: EKVX NSCLC
HOP-92 NSCLC = test system: HOP-92 NSCLC
MDA-N = test system: MDA-N
OVCAR-3 ovarian = test system: OVCAR-3 ovarian
A549 NSCLC = test system: A549 NSCLC
SF-268 CNS = test system: SF-268 CNS

Compound `O=C1CC2(CCC(O)(c3cccs3)C(C(=O)c3cccs3)C2)C(=O)c2ccccc2N1` (configuration not stated) has a TGI (RXF 393 renal) greater than 100 µM, a TGI (NCI-H460 lung) of 46.6 µM and a TGI (SK-MEL-2 melanoma) greater than 100 µM. It also gave a TGI (SK-MEL-5 melanoma) greater than 100 µM, a TGI (EKVX NSCLC) greater than 100 µM and a TGI (HOP-92 NSCLC) greater than 100 µM. The TGI (MDA-N) was greater than 100 µM, the TGI (OVCAR-3 ovarian) was greater than 100 µM and the TGI (A549 NSCLC) was greater than 100 µM. It also gave a TGI (SF-268 CNS) greater than 100 µM.

For `COc1ccc(C2c3cc4c(cc3OC(O)(CO)C2C(=O)O)OCO4)cc1` (configuration not stated) (tested in a mixture with another compound), the TGI (RXF 393 renal) was 34.7 µM, the TGI (NCI-H460 lung) was 36.3 µM and the TGI (SK-MEL-2 melanoma) was 71.8 µM. For the same compound, the TGI (SK-MEL-5 melanoma) was 39.5 µM, the TGI (EKVX NSCLC) was 88 µM and the TGI (HOP-92 NSCLC) was 41.7 µM. It also gave a TGI (OVCAR-3 ovarian) of 54.4 µM, a TGI (A549 NSCLC) greater than 100 µM and a TGI (SF-268 CNS) of 94.3 µM.

For `COC(OC)C1OC(CO)C(n2cc(F)c(=O)[nH]c2=O)C1O` (configuration not stated), the TGI (RXF 393 renal) was greater than 100 µM, the TGI (NCI-H460 lung) was greater than 100 µM and the TGI (SK-MEL-2 melanoma) was greater than 100 µM. The TGI (EKVX NSCLC) was greater than 100 µM, the TGI (HOP-92 NSCLC) was greater than 100 µM and the TGI (MDA-N) was greater than 100 µM. The TGI (OVCAR-3 ovarian) was greater than 100 µM, the TGI (A549 NSCLC) was greater than 100 µM and the TGI (SF-268 CNS) was greater than 100 µM.

With `CC(=O)c1ccc2c(c1)N(CCCN1CCN(CCO)CC1)c1ccccc1C2` the TGI (RXF 393 renal) was 32.6 µM, the TGI (NCI-H460 lung) was 31 µM and the TGI (SK-MEL-2 melanoma) was 33.5 µM. It also gave a TGI (SK-MEL-5 melanoma) of 25.6 µM, a TGI (EKVX NSCLC) of 33.6 µM and a TGI (HOP-92 NSCLC) of 27.4 µM. It also gave a TGI (MDA-N) of 26.7 µM, a TGI (OVCAR-3 ovarian) of 29.5 µM and a TGI (A549 NSCLC) of 33.3 µM. The TGI (SF-268 CNS) was 33.2 µM.

`CC(=O)Oc1ccc(CO)cc1OC(C)=O` showed a TGI (RXF 393 renal) greater than 100 µM, a TGI (NCI-H460 lung) greater than 100 µM and a TGI (SK-MEL-2 melanoma) greater than 100 µM. For the same compound, the TGI (SK-MEL-5 melanoma) was greater than 100 µM, the TGI (EKVX NSCLC) was greater than 100 µM and the TGI (HOP-92 NSCLC) was greater than 100 µM. For the same compound, the TGI (OVCAR-3 ovarian) was greater than 100 µM, the TGI (A549 NSCLC) was greater than 100 µM and the TGI (SF-268 CNS) was greater than 100 µM.

With `COc1cc2c(cc1OCCCCCCCCN1C(=O)c3cccc4cccc(c34)C1=O)N=C[C@@H]1CCCN1C2=O` the TGI (RXF 393 renal) was 29.7 µM, the TGI (NCI-H460 lung) was 72 µM and the TGI (SK-MEL-2 melanoma) was 74.6 µM. For the same compound, the TGI (SK-MEL-5 melanoma) was 25.4 µM, the TGI (EKVX NSCLC) was 35.7 µM and the TGI (OVCAR-3 ovarian) was 55.9 µM. It also gave a TGI (A549 NSCLC) greater than 100 µM and a TGI (SF-268 CNS) of 58.5 µM.

With `O=c1[nH]c(Nc2ccc(Cl)cc2)nc2nc[nH]c12` the TGI (NCI-H460 lung) was greater than 100 µM, the TGI (SK-MEL-2 melanoma) was greater than 100 µM and the TGI (SK-MEL-5 melanoma) was greater than 100 µM. It also gave a TGI (EKVX NSCLC) greater than 100 µM, a TGI (HOP-92 NSCLC) greater than 100 µM and a TGI (OVCAR-3 ovarian) greater than 100 µM. The TGI (A549 NSCLC) was greater than 100 µM and the TGI (SF-268 CNS) was greater than 100 µM.

In the case of `O=C(O)C(O)C(O)C(O)C(=O)CO` (configuration not stated), the TGI (RXF 393 renal) is reported as greater than 100 µM, the TGI (NCI-H460 lung) is reported as greater than 100 µM and the TGI (SK-MEL-2 melanoma) is reported as greater than 100 µM. For the same compound, the TGI (SK-MEL-5 melanoma) was greater than 100 µM, the TGI (EKVX NSCLC) was greater than 100 µM and the TGI (HOP-92 NSCLC) was greater than 100 µM. The TGI (MDA-N) was greater than 100 µM, the TGI (OVCAR-3 ovarian) was greater than 100 µM and the TGI (A549 NSCLC) was greater than 100 µM. The TGI (SF-268 CNS) was greater than 100 µM.

`COC(=O)C1=C(O)CCCC(CCC(C)=O)=C1` showed a TGI (RXF 393 renal) greater than 100 µM, a TGI (NCI-H460 lung) greater than 100 µM and a TGI (SK-MEL-2 melanoma) greater than 100 µM. The TGI (SK-MEL-5 melanoma) was greater than 100 µM, the TGI (EKVX NSCLC) was greater than 100 µM and the TGI (HOP-92 NSCLC) was 95.7 µM. It also gave a TGI (MDA-N) greater than 100 µM, a TGI (OVCAR-3 ovarian) greater than 100 µM and a TGI (A549 NSCLC) greater than 100 µM. The TGI (SF-268 CNS) was greater than 100 µM.

`Nc1cc(-c2ccc(Cl)cc2)nn1-c1nc2ccccc2nc1-c1ccccc1` showed a TGI (RXF 393 renal) greater than 100 µM, a TGI (NCI-H460 lung) greater than 100 µM and a TGI (SK-MEL-2 melanoma) greater than 100 µM. For the same compound, the TGI (SK-MEL-5 melanoma) was greater than 100 µM, the TGI (EKVX NSCLC) was greater than 100 µM and the TGI (HOP-92 NSCLC) was greater than 100 µM. It also gave a TGI (MDA-N) greater than 100 µM, a TGI (OVCAR-3 ovarian) greater than 100 µM and a TGI (A549 NSCLC) greater than 100 µM. The TGI (SF-268 CNS) was greater than 100 µM.

`COC(=S)OC1CC(n2cnc3c(N)ncnc32)OC1CO[Si](C)(C)C(C)(C)C` (configuration not stated) was tested, and the TGI (RXF 393 renal) was 25.9 µM, the TGI (NCI-H460 lung) was 48.1 µM and the TGI (SK-MEL-2 melanoma) was 53.8 µM. It also gave a TGI (HOP-92 NSCLC) of 59.3 µM, a TGI (MDA-N) of 46.7 µM and a TGI (OVCAR-3 ovarian) of 31 µM.

Work on `N#Cc1c(N)nc2c(c1-c1ccc(Br)cc1)CSc1ccccc1-2` yielded a TGI (RXF 393 renal) of 73.8 µM, a TGI (NCI-H460 lung) greater than 100 µM and a TGI (SK-MEL-2 melanoma) greater than 100 µM. For the same compound, the TGI (SK-MEL-5 melanoma) was greater than 100 µM, the TGI (HOP-92 NSCLC) was 50.2 µM and the TGI (MDA-N) was greater than 100 µM. The TGI (OVCAR-3 ovarian) was greater than 100 µM, the TGI (A549 NSCLC) was greater than 100 µM and the TGI (SF-268 CNS) was greater than 100 µM.

For `C1=CC(=[N+]2N=C(c3ccccc3)CC2c2ccccc2)C=CC1=C1SC(c2ccccc2)(c2ccccc2)c2ccccc21` (configuration not stated), the TGI (RXF 393 renal) was greater than 100 µM, the TGI (NCI-H460 lung) was greater than 100 µM and the TGI (SK-MEL-2 melanoma) was greater than 100 µM. The TGI (SK-MEL-5 melanoma) was greater than 100 µM, the TGI (EKVX NSCLC) was greater than 100 µM and the TGI (HOP-92 NSCLC) was greater than 100 µM. It also gave a TGI (MDA-N) greater than 100 µM, a TGI (OVCAR-3 ovarian) greater than 100 µM and a TGI (A549 NSCLC) greater than 100 µM. For the same compound, the TGI (SF-268 CNS) was greater than 100 µM.

Compound `C/C(N=Nc1nc2ccccc2[nH]1)=C1/C=CC=CN1O` has a TGI (RXF 393 renal) greater than 100 µM, a TGI (NCI-H460 lung) greater than 100 µM and a TGI (SK-MEL-2 melanoma) greater than 100 µM. For the same compound, the TGI (SK-MEL-5 melanoma) was greater than 100 µM, the TGI (EKVX NSCLC) was greater than 100 µM and the TGI (HOP-92 NSCLC) was greater than 100 µM. For the same compound, the TGI (MDA-N) was greater than 100 µM, the TGI (OVCAR-3 ovarian) was greater than 100 µM and the TGI (A549 NSCLC) was greater than 100 µM. The TGI (SF-268 CNS) was greater than 100 µM.

`CCC(C)C(NC(=O)C1CCCN1C(=O)C(CC(C)C)NC(=O)C(CC(C)C)NC(=O)C(N)CC(C)C)C(=O)NC(C(=O)NCC(=O)NC(CC(N)=O)C(=O)NC(CC(C)C)C(=O)NC(CC(C)C)C(=O)NC(CC(C)C)C(N)=O)C(C)C` (configuration not stated) (H-LLLPIVGNLLL-NH2; configuration not given here) was tested, and the TGI (SK-MEL-2 melanoma) was greater than 50 µM, the TGI (SK-MEL-5 melanoma) was greater than 50 µM and the TGI (EKVX NSCLC) was greater than 50 µM. For the same compound, the TGI (HOP-92 NSCLC) was greater than 50 µM, the TGI (MDA-N) was greater than 50 µM and the TGI (OVCAR-3 ovarian) was greater than 50 µM. The TGI (A549 NSCLC) was greater than 50 µM and the TGI (SF-268 CNS) was greater than 50 µM.

Work on `CSCCC(NC(=O)OCc1ccccc1)P(=O)(O)c1ccccc1` (configuration not stated) yielded a TGI (NCI-H460 lung) greater than 100 µM, a TGI (SK-MEL-2 melanoma) greater than 100 µM and a TGI (SK-MEL-5 melanoma) greater than 100 µM. The TGI (HOP-92 NSCLC) was greater than 100 µM, the TGI (MDA-N) was greater than 100 µM and the TGI (OVCAR-3 ovarian) was greater than 100 µM. It also gave a TGI (A549 NSCLC) greater than 100 µM.

In the case of `CCOC(=O)C(=O)NCCCN1CCOCC1`, the TGI (RXF 393 renal) is reported as greater than 100 µM, the TGI (NCI-H460 lung) is reported as greater than 100 µM and the TGI (SK-MEL-2 melanoma) is reported as greater than 100 µM. The TGI (SK-MEL-5 melanoma) was greater than 100 µM, the TGI (EKVX NSCLC) was greater than 100 µM and the TGI (HOP-92 NSCLC) was greater than 100 µM. For the same compound, the TGI (OVCAR-3 ovarian) was greater than 100 µM, the TGI (A549 NSCLC) was greater than 100 µM and the TGI (SF-268 CNS) was greater than 100 µM.

— PubChem BioAssay (NCI)
